In ChEMBL document CHEMBL1201862, “PubChem BioAssay data set” (2004):
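Each compound was tested at five concentrations against cells in 96-well plates for 48 hours. The concentration for 50% growth inhibition is given as GI50.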 The source made the active and inactive calls. No stated cut-off is given here; in the data, active = GI50 up to about 1.1 µM and inactive = higher.

Legend:
Experiment in all cases: inhibition of tumour cell growth, NCI panel, 48 h
SK-MEL-2 = system: SK-MEL-2
HT-29 = system: HT-29
TK-10 = system: TK-10
NCI/ADR-RES = system: NCI/ADR-RES
HOP-62 = system: HOP-62
HL-60 = system: HL-60
NCI-H460 = system: NCI-H460
T47D = system: T47D
MDA-MB-435 = system: MDA-MB-435
IGROV-1 = system: IGROV-1
OVCAR-8 = system: OVCAR-8
KM12 = system: KM12
OVCAR-3 = system: OVCAR-3
LOX IMVI = system: LOX IMVI
HCT-116 = system: HCT-116
CAKI-1 = system: CAKI-1
MDA-MB-231 = system: MDA-MB-231
SN12C = system: SN12C
HOP-92 = system: HOP-92
HCC 2998 = system: HCC 2998

Row | SMILES | GI50 (SK-MEL-2) | GI50 (HT-29) | GI50 (TK-10) | GI50 (NCI/ADR-RES) | GI50 (HOP-62) | GI50 (HL-60) | GI50 (NCI-H460) | GI50 (T47D) | GI50 (MDA-MB-435) | GI50 (IGROV-1) | GI50 (OVCAR-8) | GI50 (KM12) | GI50 (OVCAR-3) | GI50 (LOX IMVI) | GI50 (HCT-116) | GI50 (CAKI-1) | GI50 (MDA-MB-231) | GI50 (SN12C) | GI50 (HOP-92) | GI50 (HCC 2998)
1 | O=CNc1ncn[nH]1 | > 100 µM (inactive) | > 100 µM (inactive) | > 100 µM (inactive) | > 100 µM (inactive) | > 100 µM (inactive) | > 100 µM (inactive) | > 100 µM (inactive) | > 100 µM (inactive) | > 100 µM (inactive) | > 100 µM (inactive) | > 100 µM (inactive) | > 100 µM (inactive) | > 100 µM (inactive) | > 100 µM (inactive) | > 100 µM (inactive) | > 100 µM (inactive) | > 100 µM (inactive) | > 100 µM (inactive) | – | –
2 | CC(C)NC(=O)OCC[S+]([O-])c1c(Cl)c(Cl)nn1C (stereo unspecified) | > 100 µM (inactive) | 34 µM (inactive) | > 100 µM (inactive) | 42.8 µM (inactive) | 69.3 µM (inactive) | 47.5 µM (inactive) | > 100 µM (inactive) | 38.1 µM (inactive) | 22.3 µM (inactive) | 37.9 µM (inactive) | > 10 µM (inactive) | > 100 µM (inactive) | 40.2 µM (inactive) | 0.724 µM (active) | 33.3 µM (inactive) | 37.6 µM (inactive) | 28.6 µM (inactive) | 70.1 µM (inactive) | – | –
3 | O=C1CC2C(=O)c3ccccc3CC2c2ccccc21 (stereo unspecified) | 87.1 µM (inactive) | 44.9 µM (inactive) | 87.9 µM (inactive) | – | > 100 µM (inactive) | 17.9 µM (inactive) | 33 µM (inactive) | 49.2 µM (inactive) | 24.1 µM (inactive) | 27 µM (inactive) | 39.5 µM (inactive) | 40.6 µM (inactive) | 26.7 µM (inactive) | 38.5 µM (inactive) | 38.6 µM (inactive) | – | > 100 µM (inactive) | 55.3 µM (inactive) | 16.4 µM (inactive) | –
4 | Cn1c(=O)c2c(nc3n2CCCC(=O)N3CC(O)CCl)n(C)c1=O (stereo unspecified) | > 100 µM (inactive) | > 100 µM (inactive) | > 100 µM (inactive) | > 100 µM (inactive) | > 100 µM (inactive) | > 100 µM (inactive) | > 100 µM (inactive) | > 100 µM (inactive) | > 100 µM (inactive) | > 100 µM (inactive) | > 100 µM (inactive) | > 100 µM (inactive) | > 100 µM (inactive) | > 100 µM (inactive) | > 100 µM (inactive) | > 100 µM (inactive) | – | > 100 µM (inactive) | > 100 µM (inactive) | > 100 µM (inactive)
5 | CCC(C)(O)c1cnc(CC(C)C)c(=O)n1O (stereo unspecified) | 57.3 µM (inactive) | 38.5 µM (inactive) | 97.7 µM (inactive) | – | 42.9 µM (inactive) | – | 28.1 µM (inactive) | 59.4 µM (inactive) | 57.7 µM (inactive) | 63 µM (inactive) | 34 µM (inactive) | 37.7 µM (inactive) | 33.8 µM (inactive) | 33.8 µM (inactive) | 44.9 µM (inactive) | 43.8 µM (inactive) | 43.3 µM (inactive) | 35.1 µM (inactive) | 85.9 µM (inactive) | 40.7 µM (inactive)
6 | NC1CC=C(COC(=O)C(O)(c2ccccc2)C2CC2)CC1 (stereo unspecified) | – | > 100 µM (inactive) | > 100 µM (inactive) | > 100 µM (inactive) | > 100 µM (inactive) | – | – | > 100 µM (inactive) | – | > 100 µM (inactive) | > 100 µM (inactive) | > 100 µM (inactive) | > 100 µM (inactive) | > 100 µM (inactive) | > 100 µM (inactive) | > 100 µM (inactive) | > 100 µM (inactive) | > 100 µM (inactive) | – | > 100 µM (inactive)
7 | CCNC(=O)C1CCCN1C(=O)C(CCCN=C(N)N)NC(=O)C(CC(C)C)NC(=O)C(Cc1c[nH]c2ccccc12)NC(=O)C(Cc1ccc(O)cc1)NC(=O)C(CO)NC(=O)C(Cc1c[nH]c2ccccc12)NC(=O)C(Cc1c[nH]cn1)NC(=O)C1CCC(=O)N1 (stereo unspecified) | > 100 µM (inactive) | > 100 µM (inactive) | > 100 µM (inactive) | > 100 µM (inactive) | > 100 µM (inactive) | – | > 100 µM (inactive) | – | > 100 µM (inactive) | > 100 µM (inactive) | > 100 µM (inactive) | > 100 µM (inactive) | > 100 µM (inactive) | – | – | > 100 µM (inactive) | > 100 µM (inactive) | > 100 µM (inactive) | > 100 µM (inactive) | > 100 µM (inactive)
8 | CN(C)CCCNC(=O)c1cc(NC(=O)c2cc(NC(=O)CCCn3c4ccccc4c4ccccc43)cn2C)cn1C | 24.8 µM (inactive) | 2.59 µM (inactive) | 12.4 µM (inactive) | 19.6 µM (inactive) | 13.6 µM (inactive) | 11.6 µM (inactive) | 10.1 µM (inactive) | 7.03 µM (inactive) | 9.29 µM (inactive) | 26.5 µM (inactive) | 22.8 µM (inactive) | 6.28 µM (inactive) | 13.4 µM (inactive) | 6.59 µM (inactive) | 3.27 µM (inactive) | 19.1 µM (inactive) | – | 14.3 µM (inactive) | 14.7 µM (inactive) | 5.52 µM (inactive)
9 | C=C[C@@H]1C[C@]2(C(=O)OC)Cc3nc4ccccc4nc3CC(C(=O)OC)=C2O1 | > 100 µM (inactive) | > 100 µM (inactive) | > 100 µM (inactive) | > 100 µM (inactive) | > 100 µM (inactive) | 80.5 µM (inactive) | > 100 µM (inactive) | 85.5 µM (inactive) | 47.8 µM (inactive) | 61.2 µM (inactive) | > 100 µM (inactive) | 75.5 µM (inactive) | 23 µM (inactive) | 45.6 µM (inactive) | > 100 µM (inactive) | > 100 µM (inactive) | 92.9 µM (inactive) | > 100 µM (inactive) | – | –
10 | CC1CCCN(CP(=O)(c2ccccc2)c2ccccc2)C1 (stereo unspecified) | > 100 µM (inactive) | – | > 100 µM (inactive) | > 100 µM (inactive) | > 100 µM (inactive) | 13.6 µM (inactive) | 92.5 µM (inactive) | – | > 100 µM (inactive) | > 100 µM (inactive) | > 100 µM (inactive) | > 100 µM (inactive) | 78.2 µM (inactive) | > 100 µM (inactive) | 93.8 µM (inactive) | > 100 µM (inactive) | > 100 µM (inactive) | > 100 µM (inactive) | > 100 µM (inactive) | 52.5 µM (inactive)
11 | Oc1ccc(-c2nc3ccc(F)cc3s2)cc1 | 19.1 µM (inactive) | 15 µM (inactive) | 16 µM (inactive) | 21.1 µM (inactive) | – | 22.4 µM (inactive) | 24.1 µM (inactive) | 15.1 µM (inactive) | 20.4 µM (inactive) | 16.9 µM (inactive) | 19.4 µM (inactive) | 15.7 µM (inactive) | 30.7 µM (inactive) | 20.4 µM (inactive) | 18.2 µM (inactive) | 19.7 µM (inactive) | 20.8 µM (inactive) | 18.4 µM (inactive) | – | –
12 | CN(CO)c1nc(N(C)CO)nc(N(C)CO)n1 [TRIMELAMOL] | – | 23 µM (inactive) | 31.8 µM (inactive) | – | 20 µM (inactive) | 4.75 µM (inactive) | – | 32.1 µM (inactive) | 20.1 µM (inactive) | 23.7 µM (inactive) | 14.5 µM (inactive) | 15.1 µM (inactive) | 27.7 µM (inactive) | 9.86 µM (inactive) | – | 23.8 µM (inactive) | 21.5 µM (inactive) | – | – | –
